Assay [1] concerns GM-CSFR/JAK2/STAT5 pathway. Put plainly: CSTF-1 cell-based reporter assay. The conditions noted are these: Homo sapiens; csTF-1 cells, GM-CSF at 2 ng/mL, 4 hours, beta-lactamase reporter; read-out: Cell Assay: CS TF-1 reporter assay IC50. Here is the method: CSTF-1 Cell-Based Reporter Assay
CSTF-1 cells are derived from the human erythroleukemia cell line that is growth dependent on GM-CSF and has an intact GM-CSFR/JAK2/STAT5 pathway. The cell line contains stably integrated beta-lactamase reporter gene under the control of the […] (irf 1) response element recognized by the activated transcription factor STAT5. csTF-1 cells (Invitrogen K1219) were washed with assay media (97% OPTIMEM/0.5% dialyzed FBS/0.1 mM NEAA/1 mM Na pyr/P/S) and seeded in the same media at 5×10^5 cell/mL in T150 flask. After 16 hour incubation, cells were seeded at 2×10^5 cell/well in 50 μl volume, into Costar, clear bottom, 96-well assay plates. Serial dilutions of compounds were added to the plates with final DMSO concentration at 0.5% and GM-CSF at 2 ng/mL and the plates were then incubated at 30° C. and 5% CO2 for 4 hours. The plates were brought to room temperature before adding Substrate Mixture according to manufacturer's protocol (Invitrogen, Catalog #K1085). The assay plates containing the substrate mixture were incubated in the dark at room temperature for 2 hours. Blue and green fluorescence was measured with excitation at 409 nm and emission at 460 nm (for blue) and excitation at 409 nm and emission at 530 nm (for green) using Spectra Max Gemini EM.
(Reporter assays use an easily measured gene product as a stand-in for the process of interest.)

Assay [2] concerns the target T1, JAK2 (Homo sapiens, UniProt O60674).
T1 construct: made in house; host or cells: T7 phage display or HEK-293 cells (alternatives)
Briefly: Competition binding assay to determine binding constants (Kd), JAK2. The source says: (§1) Competition Binding Assay to Determine Binding Constants (Kd) of the Compounds Against JAK Kinases
(§2) Competition binding assays used herein were developed, validated and performed as described in Fabian et al., Nature Biotechnology 2005, 23, 329-336. Kinases were produced as fusions to T7 phage (See, Fabian et al. or WO04/015142) or alternatively, the kinases were expressed in HEK-293 cells and subsequently tagged with DNA for PCR detection (See, WO08/005,310). For the binding assays, streptavidin-coated magnetic beads were treated with biotinylated affinity ligands for 30 min at rt to generate affinity resins. The liganded beads were blocked with excess biotin and washed with blocking buffer (SeaBlock (Pierce), 1% BSA, 0.05% Tween 20, 1 mM DTT) to remove unbound ligand and to reduce non-specific binding. Binding reactions were assembled by combining kinase, liganded affinity beads, and test compounds in 1× binding buffer (20% SeaBlock, 0.17×PBS, 0.05% Tween 20, 6 mM DTT). Test compounds were prepared as 100× stocks in DMSO and rapidly diluted into the aqueous environment. DMSO was added to control assays lacking a test compound. Primary screen interactions were performed in polypropylene 384-well plates in a final volume of 34 μL, while Kd determinations were performed in polystyrene 96-well plates in a final volume of 135 μL. The assay plates were incubated at room temperature with shaking for 1 hour, long enough for binding reactions to reach equilibrium, and the affinity beads were washed extensively with wash buffer (1×PBS, 0.05% Tween 20) to remove unbound protein. The beads were then resuspended in elution buffer (1×PBS, 0.05% Tween 20, 2 μM non-biotinylated affinity ligand) and incubated at room temperature with shaking for 30 min. The kinase concentration in the eluates was measured by quantitative PCR. Each kinase was tested individually against each compound. Kds were determined using eleven serial threefold dilutions. A selectivity score, which is a quantitative measure of selectivity of a compound against a panel of enzymes, may be calculated for a compound by dividing the number of enzymes for which a compound meets a set criteria, (for example, a binding constant of 100 nM or less), by the total number of enzymes tested.

Assay [3] addresses T2, TYK2 (Homo sapiens, UniProt P29597).
T2 construct: made in house; host or cells: T7 phage display or HEK-293 cells (alternatives)
Put plainly: Competition binding assay to determine binding constants (Kd), TYK2.
Source text: as §1, §2

Assay [4] has as its target T3, JAK3 (Homo sapiens, UniProt P52333).
T3 construct: made in house; host or cells: T7 phage display or HEK-293 cells (alternatives)
T3 sequence (P52333 1-1124): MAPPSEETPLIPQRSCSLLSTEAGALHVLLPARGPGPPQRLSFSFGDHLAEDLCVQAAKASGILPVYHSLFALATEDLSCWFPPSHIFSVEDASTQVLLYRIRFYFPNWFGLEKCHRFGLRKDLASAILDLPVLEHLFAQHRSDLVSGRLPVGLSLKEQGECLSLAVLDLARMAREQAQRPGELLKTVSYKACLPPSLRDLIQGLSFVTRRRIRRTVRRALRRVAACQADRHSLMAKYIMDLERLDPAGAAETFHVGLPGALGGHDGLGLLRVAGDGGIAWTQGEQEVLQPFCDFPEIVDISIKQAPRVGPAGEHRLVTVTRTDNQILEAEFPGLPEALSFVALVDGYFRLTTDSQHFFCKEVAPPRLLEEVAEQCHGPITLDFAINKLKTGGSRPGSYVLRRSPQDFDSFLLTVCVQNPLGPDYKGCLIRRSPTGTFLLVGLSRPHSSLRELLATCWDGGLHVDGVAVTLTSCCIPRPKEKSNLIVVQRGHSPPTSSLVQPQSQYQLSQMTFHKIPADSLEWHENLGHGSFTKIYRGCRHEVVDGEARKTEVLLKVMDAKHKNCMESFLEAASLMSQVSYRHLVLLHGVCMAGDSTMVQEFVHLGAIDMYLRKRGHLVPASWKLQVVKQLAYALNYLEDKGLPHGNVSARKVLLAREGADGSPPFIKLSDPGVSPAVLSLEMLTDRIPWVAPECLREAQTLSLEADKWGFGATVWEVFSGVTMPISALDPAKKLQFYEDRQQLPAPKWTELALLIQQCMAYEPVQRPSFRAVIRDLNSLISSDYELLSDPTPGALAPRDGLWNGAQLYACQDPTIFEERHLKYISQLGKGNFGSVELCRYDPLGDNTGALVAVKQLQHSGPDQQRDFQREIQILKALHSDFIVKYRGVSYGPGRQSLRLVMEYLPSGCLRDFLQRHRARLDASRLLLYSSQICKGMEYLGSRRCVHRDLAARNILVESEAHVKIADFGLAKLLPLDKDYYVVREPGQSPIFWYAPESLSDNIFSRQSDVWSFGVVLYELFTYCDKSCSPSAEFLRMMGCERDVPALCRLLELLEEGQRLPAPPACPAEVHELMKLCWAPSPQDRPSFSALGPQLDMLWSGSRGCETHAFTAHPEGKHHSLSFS
Briefly: Competition binding assay to determine binding constants (Kd), JAK3.
Source text: as §1, §2

In general, IC50 refers to the midpoint of a concentration-inhibition curve. The Kd is the free concentration of one partner at which half of the binding sites on the other are occupied at equilibrium, for simple one-to-one binding. Lower therefore signals higher affinity.

T1 sequence (O60674 whole entry): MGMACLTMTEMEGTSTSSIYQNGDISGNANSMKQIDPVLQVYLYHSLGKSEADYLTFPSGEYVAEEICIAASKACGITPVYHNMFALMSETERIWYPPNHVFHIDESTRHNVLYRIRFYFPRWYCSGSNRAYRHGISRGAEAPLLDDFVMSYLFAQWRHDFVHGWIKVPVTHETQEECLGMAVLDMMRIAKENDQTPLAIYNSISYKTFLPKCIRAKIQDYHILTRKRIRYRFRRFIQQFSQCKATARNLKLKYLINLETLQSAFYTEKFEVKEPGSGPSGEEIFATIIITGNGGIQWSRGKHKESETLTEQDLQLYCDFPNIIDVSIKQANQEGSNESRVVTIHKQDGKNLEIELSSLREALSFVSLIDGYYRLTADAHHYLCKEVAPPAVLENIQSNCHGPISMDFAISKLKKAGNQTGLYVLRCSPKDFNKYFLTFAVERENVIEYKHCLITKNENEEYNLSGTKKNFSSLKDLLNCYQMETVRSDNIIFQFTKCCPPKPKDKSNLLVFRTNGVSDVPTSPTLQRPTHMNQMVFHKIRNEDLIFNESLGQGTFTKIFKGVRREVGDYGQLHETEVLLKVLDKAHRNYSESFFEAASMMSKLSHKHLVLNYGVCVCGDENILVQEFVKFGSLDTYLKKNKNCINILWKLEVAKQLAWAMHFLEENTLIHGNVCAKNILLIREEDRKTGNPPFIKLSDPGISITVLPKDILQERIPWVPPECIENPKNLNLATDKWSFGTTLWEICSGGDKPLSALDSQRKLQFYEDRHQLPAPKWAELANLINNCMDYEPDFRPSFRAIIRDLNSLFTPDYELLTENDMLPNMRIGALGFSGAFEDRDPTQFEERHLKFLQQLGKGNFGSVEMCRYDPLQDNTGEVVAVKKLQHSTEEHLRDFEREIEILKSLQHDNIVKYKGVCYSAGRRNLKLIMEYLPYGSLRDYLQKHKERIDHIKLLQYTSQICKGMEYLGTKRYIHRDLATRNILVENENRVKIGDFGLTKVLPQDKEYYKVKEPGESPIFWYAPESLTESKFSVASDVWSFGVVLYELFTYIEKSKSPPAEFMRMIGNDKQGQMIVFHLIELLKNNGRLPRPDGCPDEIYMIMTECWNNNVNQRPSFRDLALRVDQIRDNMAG
T2 sequence (P29597 whole entry): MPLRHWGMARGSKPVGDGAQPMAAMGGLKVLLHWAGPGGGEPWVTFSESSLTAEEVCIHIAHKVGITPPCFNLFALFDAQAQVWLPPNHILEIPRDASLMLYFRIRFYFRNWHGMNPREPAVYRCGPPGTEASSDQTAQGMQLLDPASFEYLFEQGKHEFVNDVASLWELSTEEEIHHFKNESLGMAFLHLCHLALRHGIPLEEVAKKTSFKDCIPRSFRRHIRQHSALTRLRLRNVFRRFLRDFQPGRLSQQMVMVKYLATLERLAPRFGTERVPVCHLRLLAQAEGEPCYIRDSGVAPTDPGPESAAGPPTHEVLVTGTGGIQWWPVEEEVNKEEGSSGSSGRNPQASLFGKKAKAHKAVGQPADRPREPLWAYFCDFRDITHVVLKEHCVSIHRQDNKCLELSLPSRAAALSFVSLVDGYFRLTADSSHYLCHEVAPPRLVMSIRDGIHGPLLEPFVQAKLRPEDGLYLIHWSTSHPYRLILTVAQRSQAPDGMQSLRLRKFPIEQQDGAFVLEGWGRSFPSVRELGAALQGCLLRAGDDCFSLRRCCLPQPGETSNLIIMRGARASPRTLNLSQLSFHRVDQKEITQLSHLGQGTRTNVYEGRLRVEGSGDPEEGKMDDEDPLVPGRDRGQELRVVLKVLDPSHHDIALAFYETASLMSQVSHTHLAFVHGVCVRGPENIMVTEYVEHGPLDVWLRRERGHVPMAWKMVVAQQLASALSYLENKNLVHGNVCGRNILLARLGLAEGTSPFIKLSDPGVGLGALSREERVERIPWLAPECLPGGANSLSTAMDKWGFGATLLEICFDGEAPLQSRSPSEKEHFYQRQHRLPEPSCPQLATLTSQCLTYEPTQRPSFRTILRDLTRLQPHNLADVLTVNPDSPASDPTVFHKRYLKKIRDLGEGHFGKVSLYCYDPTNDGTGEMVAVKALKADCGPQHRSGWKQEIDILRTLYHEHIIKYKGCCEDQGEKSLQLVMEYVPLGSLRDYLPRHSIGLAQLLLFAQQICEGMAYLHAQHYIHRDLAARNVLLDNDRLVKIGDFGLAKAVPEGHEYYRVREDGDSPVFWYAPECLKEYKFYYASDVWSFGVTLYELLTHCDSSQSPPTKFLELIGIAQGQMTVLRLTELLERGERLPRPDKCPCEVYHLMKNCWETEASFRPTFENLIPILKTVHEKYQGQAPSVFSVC

Regarding `CN(C)C(=O)Cn1ccc2c(Nc3cc[nH]n3)nc(S(=O)(=O)c3ccc(F)cc3)nc21` [Example 16, 2-(4-(1H-pyrazol-3-ylamino)-2-(4-fluorophenylsulfonyl)-7H-pyrrolo[2,3-d]pyrimidin-7-yl)-N,N-dimethylacetamide], in assay [1], the IC50 fell in the range of 100 to 500 nM. The Kd was not above 1 nM in assay [2], not above 10 nM in assay [3] and not above 10 nM in assay [4].
As for `CCn1ncc2c(Nc3cc(C)[nH]n3)nc(Sc3ccc(F)cc3)nc21` [Example 43, 1-ethyl-6-((4-fluorophenyl)thio)-N-(5-methyl-1H-pyrazol-3-yl)-1H-pyrazolo[3,4-d]pyrimidin-4-amine], in assay [1], the half-maximal inhibitory concentration (IC50) was 100 to 500 nM. For the same molecule, the equilibrium dissociation constant (Kd) in assay [2] was more than 10 nM; in assay [3], 10 to 100 nM; in assay [4], more than 100 nM.
The matching figures for `Cc1cc(Nc2nc(C(F)(F)c3ccc(F)cc3)nc3nc(N4CCCC4)sc23)n[nH]1` [Example 36, 5-(difluoro(4-fluorophenyl)methyl)-N-(5-methyl-1H-pyrazol-3-yl)-2-(pyrrolidin-1-yl)thiazolo[4,5-d]pyrimidin-7-amine]: 100 to 500 nM, not above 1 nM, not above 10 nM and 10 to 100 nM.
In the case of `CSc1nc2nc(C(F)(F)c3ccc(F)cc3)nc(Nc3cc(C)[nH]n3)c2s1` [Example 35, 5-(difluoro(4-fluorophenyl)methyl)-N-(5-methyl-1H-pyrazol-3-yl)-2-(methylthio)thiazolo[4,5-d]pyrimidin-7-amine], the IC50 in assay [1] was in the range of 100 to 500 nM. In addition, the dissociation constant Kd was 1 to 10 nM in assay [2], not above 10 nM in assay [3] and 10 to 100 nM in assay [4].
The matching figures for `Cc1cc(Nc2nc(C(F)(F)c3ccc(F)cc3)nc3nc(N4CCN(C)CC4)sc23)n[nH]1` [Example 38, 5-(difluoro(4-fluorophenyl)methyl)-N-(5-methyl-1H-pyrazol-3-yl)-2-(4-methylpiperazin-1-yl)thiazolo[4,5-d]pyrimidin-7-amine]: not above 100 nM, 1 to 10 nM, not above 10 nM and not above 10 nM.
The matching figures for `Cc1cc(Nc2nc(S(=O)(=O)c3ccc(F)cc3)nc3c2cnn3CCN2CCOCC2)n[nH]1` [Example 29, 6-(4-fluorophenylsulfonyl)-N-(5-methyl-1H-pyrazol-3-yl)-1-(2-morpholinoethyl)-1H-pyrazolo[3,4-d]pyrimidin-4-amine]: 100 to 500 nM, not above 1 nM, not above 10 nM and 10 to 100 nM.
The matching figures for `Cc1cc(Nc2nc(C(F)(F)c3ccc(F)cn3)nc3c2cnn3C)n[nH]1` [Example 34, 6-(difluoro(5-fluoropyridin-2-yl)methyl)-1-methyl-N-(5-methyl-1H-pyrazol-3-yl)-1H-pyrazolo[3,4-d]pyrimidin-4-amine]: 100 to 500 nM, not above 1 nM, not above 10 nM and 10 to 100 nM.
As to `COCCn1ccc2c(Nc3cc(C)[nH]n3)nc(S(=O)(=O)c3ccc(F)cc3)nc21` [Example 11, 2-(4-fluorophenylsulfonyl)-7-(2-methoxyethyl)-N-(5-methyl-1H-pyrazol-3-yl)-7H-pyrrolo[2,3-d]pyrimidin-4-amine], the concentration for half-maximal inhibition (IC50) in assay [1] was not above 100 nM. For the same molecule, the figures for the equilibrium dissociation constant (Kd) in assay [2], in assay [3] and in assay [4] were not above 1 nM, not above 10 nM and not above 10 nM, respectively.
Turning to `Cc1cc(Nc2nc(C(F)(F)c3ccc(F)cc3)nc3nn(C)cc23)n[nH]1` [Example 20, 6-(difluoro(4-fluorophenyl)methyl)-2-methyl-N-(5-methyl-1H-pyrazol-3-yl)-2H-pyrazolo[3,4-d]pyrimidin-4-amine], the concentration for half-maximal inhibition (IC50) in assay [1] lay in the range of 100 to 500 nM. Moreover, the Kd in assay [2] is not above 1 nM; in assay [3], not above 10 nM; in assay [4], 10 to 100 nM.
The matching figures for `CCn1ccc2c(Nc3cc(C)[nH]n3)nc(S(=O)(=O)c3ccc(F)cc3)nc21` [Example 7, 7-ethyl-2-(4-fluorophenylsulfonyl)-N-(5-methyl-1H-pyrazol-3-yl)-7H-pyrrolo[2,3-d]pyrimidin-4-amine]: not above 100 nM, not above 1 nM, not above 10 nM and not above 10 nM.
The matching figures for `CS(=O)(=O)CCn1ccc2c(Nc3cc[nH]n3)nc(S(=O)(=O)c3ccc(F)cc3)nc21` [Example 18, 2-(4-fluorophenylsulfonyl)-7-(2-(methylsulfonyl)ethyl)-N-(1H-pyrazol-3-yl)-7H-pyrrolo[2,3-d]pyrimidin-4-amine]: 100 to 500 nM, not above 1 nM, not above 10 nM and not above 10 nM.
With `Cc1cc(Nc2nc(S(=O)(=O)c3ccc(F)cc3)nc3[nH]ccc23)n[nH]1` [Example 4, 2-(4-fluorophenylsulfonyl)-N-(5-methyl-1H-pyrazol-3-yl)-7H-pyrrolo[2,3-d]pyrimidin-4-amine], the 50% inhibitory concentration (IC50) in assay [1] was not above 100 nM. In addition, the Kd in assay [2] was not above 1 nM; in assay [3], not above 10 nM; in assay [4], not above 10 nM.
Consider `Cn1ccc2c(Nc3cc[nH]n3)nc(S(=O)(=O)c3ccc(F)cc3)nc21` [Example 6, 2-(4-fluorophenylsulfonyl)-7-methyl-N-(1H-pyrazol-3-yl)-7H-pyrrolo[2,3-d]pyrimidin-4-amine], for which, in assay [1], the 50% inhibitory concentration (IC50) is not above 100 nM. The Kd in assay [2] was not above 1 nM; in assay [3] it was not above 10 nM; in assay [4], not above 10 nM.
For `Cc1cc(Nc2nc(C(F)(F)c3ccc(F)cc3)nc3ncsc23)n[nH]1` [Example 41, 5-(difluoro(4-fluorophenyl)methyl)-N-(5-methyl-1H-pyrazol-3-yl)thiazolo[4,5-d]pyrimidin-7-amine], the half-inhibitory concentration (IC50) in assay [1] was in the range of 100 to 500 nM. The results for the Kd in assay [2], in assay [3] and in assay [4] were 1 to 10 nM, not above 10 nM and 10 to 100 nM, respectively.
